Source: patent publication US20210369652A1, “Nonhormonal Unisex Contraceptives” (The Regents of the University of California, priority 2019, published 2021)
Entries after “also recorded” stand apart in the source; their conditions may differ.

What was measured:
ANT = molecular target: T1, ANT (Mus musculus, UniProt P48962); assay: Whole-IMM patch-clamp recording of H+ current (IH) in mitoplasts; format: biochemical, mice; conditions: for ANT-mediated H+ current (IH), regulators: skeletal muscle mitoplast, 2 μM AA, then 1 mM bath ADP, step from 0 to -160 mV
T1 construct: functional analysis of mitochondrial ion channels and transporters in their native membrane environment; from tissue; host or cells: heart mitoplasts (WT and ANT1-/- mice); skeletal muscle mitoplasts
T1 sequence (P48962 2-298): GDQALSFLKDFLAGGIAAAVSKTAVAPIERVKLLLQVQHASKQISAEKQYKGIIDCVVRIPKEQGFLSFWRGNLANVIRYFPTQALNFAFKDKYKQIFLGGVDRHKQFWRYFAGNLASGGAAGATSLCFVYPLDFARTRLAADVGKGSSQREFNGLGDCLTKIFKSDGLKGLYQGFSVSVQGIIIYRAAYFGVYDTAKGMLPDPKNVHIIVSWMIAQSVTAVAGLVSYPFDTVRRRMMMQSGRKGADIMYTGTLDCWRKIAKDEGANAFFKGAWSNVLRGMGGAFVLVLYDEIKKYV
Text: FIG. 3A-B is a pair of schematic diagrams depicting a mitochondrial patch-clamp. (A) Preparation of mitoplasts (vesicles of the whole IMM): (1) Isolation of mitochondria from cell lysate by centrifugation; (2) OMM removal using a low-pressure French press; (3) isolated mitoplasts in a KCl solution. Remnants of the OMM (arrow) are attached to the IMM. (B) Patch-clamp recording from mitoplasts. After formation of the gigaohm seal (mitoplast-attached configuration), the membrane patch under the pipette can be destroyed by high-amplitude voltage pulses to form a whole-mitoplast configuration for recording currents (I) across the whole IMM. Alternatively, the patch pipette can be withdrawn from the mitoplast to form an inside-out mode for recording single-channel activity.
FIG. 4 is a series of graphs (upper panels) and a schematic diagram (lower panel) showing regulators of ANT-mediated H^+ current (IH). […] Control current is shown in black. Middle panel: IH time course of the left panel. Skeletal muscle mitoplast. IH amplitudes were measured upon stepping from 0 to −160 mV. Right panel: ADP inhibition of IH in points 2 and 3. Remaining IH measured at −160 mV is shown as a percentage of control, n=8. Explanation of transient IH inhibition by cytosolic adenine nucleotides. ANT in c-state, with fatty acid (FA) anion in the translocation pathway, mediates IH (I). Cytosolic ADP^3− binds in c-state and expels FA anion/blocks translocation pathway, leading to IH inhibition (2). Upon ANT conformation change, ADP dissociates into matrix (pipette) solution (2 and 3). FA anion re-associates with ANT in m-state, restoring IH (4 and 5). Cytosolic ADP cannot inhibit IH while AAC is in m-state (5). Preliminary data from (Bertholet, A. M. Chouchani., E. T.; Kazak, L.; Angelin, A.; Fedorenko, A.; Long, J. Z.; Vidoni, S.; Garrity, R.; Cho, J.; Terada, N.; Wallace, D.C.; Spiegelman, B. M.; and Kirichok, Y. Proton Transport is an Integral Function of the Mitochondrial ADP/ATP Carrier Nature July; 571(7766):515-520 (2019)).
Right panel: IH current densities at −160 mV for WT and ANT1^−/− mitoplasts. b, Representative currents induced by 50 μM DNP in WT and ANT1^−/− mitoplasts of heart. Right panel: IH current densities induced by 50 and 200 μM DNP at −160 mV in WT and ANT1^−/− mitoplasts.
We employed direct patch-clamp recording from vesicles of the whole intact inner mitochondrial membrane (IMM; so-called mitoplasts, FIG. 3), which allow high-resolution functional analysis of mitochondrial ion channels and transporters in their native membrane environment^10,36,37. […]
We recorded DNP-induced IH in heart of ANT1-deficient mice (ANT1 is the dominant isoform of ANT in this tissue).

human sperm mitochondria = assay: Human sperm mitochondrial membrane potential (MMP) assessment with MitoRed; format: cell-based; conditions: 15 minutes incubation, 1 μM NEN or 0.75 μM BAM15, 45 nM MitoRed fluorescence
Procedure: Samples from each condition (at least 100 of sperm midpieces per condition) were then assessed for fluorescence intensity measured with 45 nM MitoRed, which is a cell membrane permeable rhodamine-based dye. MitoRed localizes to mitochondria, and emits red fluorescence. The interaction of Mito Red with mitochondria depends on the membrane potential of the mitochondria. Uncoupled mitochondria emit less fluorescence. Data are standard boxplots, as in (A). C) Effect of sMU on human capacitated sperm hyperactivated motility. Cells were capacitated as described (11) for 4 hours. 4 μM Progesterone was added 2 minutes before imaging to trigger hyperactivation (HA). Cells were assessed as either Hyperactivated or Not Hyperactivated. N>45 cells. Error bars represent 95% CI calculated through the Wilson/Brown method.

human capacitated sperm = assay: Hyperactivated motility of capacitated human sperm triggered by progesterone; format: cell-based; conditions: capacitated 4 hours; 4 μM progesterone; concentrations as low as 1 μM
Procedure: A) Human sperm were purified by swim-up method and their basal beat frequency (BF, in Hz) was measured as described in (Mannowetz, N., Naidoo, N. M., Choo, S. A., Smith, J. F. & Lishko, P. V. Slol is the principal potassium channel of human spermatozoa. eLife 2, e01009, doi:10.7554/eLife.01009 (2013)) in control HS solution ((1); in the presence of vehicle control ((2); […]. X's represent the mean of the sample, and dots represent individual data points. B) Human sperm mitochondrial membrane potential (MMP) assessment. Human sperm were incubated for 15 minutes in the presence of 0.1% DMSO (vehicle control), in the presence of 1 μM NEN or 0.75 μM […]. Samples from each condition (at least 100 of sperm midpieces per condition) were then assessed for fluorescence intensity measured with 45 nM MitoRed, which is a cell membrane permeable rhodamine-based dye. MitoRed localizes to mitochondria, and emits red fluorescence. The interaction of Mito Red with mitochondria depends on the membrane potential of the mitochondria. Uncoupled mitochondria emit less fluorescence. Data are standard boxplots, as in (A). C) Effect of sMU on human capacitated sperm hyperactivated motility. Cells were capacitated as described (11) for 4 hours. […] Cells were assessed as either Hyperactivated or Not Hyperactivated. […] Error bars represent 95% CI calculated through the Wilson/Brown method.

human sperm = assay: Human sperm basal beat frequency; format: cell-based; conditions: for sperm beat frequency / motility, result in words: human sperm, 1 μM NEN
Procedure: A) Human sperm were purified by swim-up method and their basal beat frequency (BF, in Hz) was measured as described in (Mannowetz, N., Naidoo, N. M., Choo, S. A., Smith, J. F. & Lishko, P. V. Slol is the principal potassium channel of human spermatozoa. eLife 2, e01009, doi:10.7554/eLife.01009 (2013)) in control HS solution ((1); in the presence of vehicle control ((2); […]. X's represent the mean of the sample, and dots represent individual data points. B) Human sperm mitochondrial membrane potential (MMP) assessment. Human sperm were incubated for 15 minutes in the presence of 0.1% DMSO (vehicle control), in the presence of 1 μM NEN or 0.75 μM […]. Samples from each condition (at least 100 of sperm midpieces per condition) were then assessed for fluorescence intensity measured with 45 nM MitoRed, which is a cell membrane permeable rhodamine-based dye. MitoRed localizes to mitochondria, and emits red fluorescence. The interaction of Mito Red with mitochondria depends on the membrane potential of the mitochondria. Uncoupled mitochondria emit less fluorescence. Data are standard boxplots, as in (A). C) Effect of sMU on human capacitated sperm hyperactivated motility. Cells were capacitated as described (11) for 4 hours. 4 μM Progesterone was added 2 minutes before imaging to trigger hyperactivation (HA). Cells were assessed as either Hyperactivated or Not Hyperactivated. N>45 cells. Error bars represent 95% CI calculated through the Wilson/Brown method.

Compound	sperm mitochondrial uncoupling (sMU) as assessed by mitochondrial depolarization (human sperm mitochondria)	ANT-mediated H+ current (IH), regulators (ANT)	hyperactivation (hyperactivated motility) (human capacitated sperm)	sperm beat frequency / motility, result in words (human sperm)	also measured
C=C1[C@@H]2CC[C@H]3[C@]4(C)C[C@H](O[C@@H]5O[C@H](CO)[C@@H](OS(=O)(=O)O)[C@H](OS(=O)(=O)O)[C@H]5OC(=O)CC(C)C)CC(C(=O)O)(C(=O)O)[C@H]4CC[C@]3(C2)[C@H]1O [CATR, carboxyatractyloside]	–	–	–	–	inhibition of IH mediated by ANT (ANT; whole-IMM patch-clamp, classical ANT inhibitor): blocked
O=[N+]([O-])c1ccc(O)c([N+](=O)[O-])c1 [DNP, 2,4-dinitrophenol]	uncouple sperm mitochondria	–	–	–	proton leak (IH) via ANT induced by uncoupler (ANT; whole-IMM patch-clamp, 50 and 200 μM DNP, heart mitoplasts WT and ANT1-/-, -160 mV): strongly and specifically activates proton leak via ANT; also recorded: primarily depends on ANT
CCCCC/C=C\C/C=C\C/C=C\C/C=C\CCCC(=O)O [arachidonic acid]	–	activated	–	–	–
O=C(Nc1ccc([N+](=O)[O-])cc1Cl)c1cc(Cl)ccc1O [niclosamide]	uncouple sperm mitochondria	–	inhibited hyperactivation	significantly decreases sperm motility	sperm mitochondrial uncoupling (sMU) as assessed by mitochondrial depolarization (human sperm mitochondria; listed as Niclosamide): uncouples mitochondria; sperm beat frequency (human sperm; human sperm purified by swim-up, decreased from 14 Hz, concentrations as low as 1 μM): 6 Hz
NCCO.O=C(Nc1ccc([N+](=O)[O-])cc1Cl)c1cc(Cl)ccc1O [NEN, niclosamide ethanolamine]	uncouples human sperm mitochondria; also recorded: strong sMU	–	significantly decreases	significantly decreases	–
Nc1ncnc2c1ncn2[C@@H]1O[C@H](COP(=O)(O)OP(=O)(O)O)[C@@H](O)[C@H]1O [ADP]	–	transient inhibition	–	–	–
